Experiment: xn = mol fraction of the nth substance listed
Conditions: 101.3 kPa, Liquid; for viscosity: Concentric cylinders viscometry; for mass density: Vibrating tube method

CCn1cc[n+](C)c1C.O=S(=O)([N-]S(=O)(=O)C(F)(F)F)C(F)(F)F + CCOC(=O)OCC
Conditions	mass density [kg/m3]	viscosity [mPa·s]
293.15 K, x1 = 0.1731	1150.1	3.168
293.15 K, x1 = 0.302	1242.2	6.382
293.15 K, x1 = 0.4028	1298.8	10.53
293.15 K, x1 = 0.4991	1343.7	16.14
293.15 K, x1 = 0.6093	1387	25.06
293.15 K, x1 = 0.7039	1418.8	35.42
293.15 K, x1 = 0.7951	1445.6	48.11
293.15 K, x1 = 0.8901	1470.6	64.72
293.15 K, x1 = 1	1495.8	89.88
298.15 K, x1 = 0.1731	1144.8	2.871
298.15 K, x1 = 0.302	1237.1	5.646
298.15 K, x1 = 0.4028	1293.7	9.149
298.15 K, x1 = 0.4991	1338.7	13.79
298.15 K, x1 = 0.6093	1382	21.02
298.15 K, x1 = 0.7039	1413.9	29.27
298.15 K, x1 = 0.7951	1440.8	39.24
298.15 K, x1 = 0.8901	1465.8	52.12
298.15 K, x1 = 1	1491	71.34
303.15 K, x1 = 0.1731	1139.5	2.615
303.15 K, x1 = 0.302	1232	5.032
303.15 K, x1 = 0.4028	1288.6	8.021
303.15 K, x1 = 0.4991	1333.7	11.9
303.15 K, x1 = 0.6093	1377.1	17.84
303.15 K, x1 = 0.7039	1409	24.52
303.15 K, x1 = 0.7951	1435.9	32.49
303.15 K, x1 = 0.8901	1461	42.65
303.15 K, x1 = 1	1486.3	57.64
308.15 K, x1 = 0.1731	1134.2	2.394
308.15 K, x1 = 0.302	1226.9	4.515
308.15 K, x1 = 0.4028	1283.6	7.089
308.15 K, x1 = 0.4991	1328.7	10.37
308.15 K, x1 = 0.6093	1372.2	15.31
308.15 K, x1 = 0.7039	1404.1	20.78
308.15 K, x1 = 0.7951	1431.1	27.23
308.15 K, x1 = 0.8901	1456.2	35.38
308.15 K, x1 = 1	1481.5	47.26
313.15 K, x1 = 0.1731	1128.9	2.201
313.15 K, x1 = 0.302	1221.7	4.076
313.15 K, x1 = 0.4028	1278.5	6.312
313.15 K, x1 = 0.4991	1323.7	9.113
313.15 K, x1 = 0.6093	1367.3	13.27
313.15 K, x1 = 0.7039	1399.3	17.81
313.15 K, x1 = 0.7951	1426.2	23.1
313.15 K, x1 = 0.8901	1451.4	29.72
313.15 K, x1 = 1	1476.7	39.24
318.15 K, x1 = 0.1731	1123.6	2.032
318.15 K, x1 = 0.302	1216.5	3.7
318.15 K, x1 = 0.4028	1273.5	5.657
318.15 K, x1 = 0.4991	1318.8	8.07
318.15 K, x1 = 0.6093	1362.4	11.6
318.15 K, x1 = 0.7039	1394.4	15.41
318.15 K, x1 = 0.7951	1421.4	19.8
318.15 K, x1 = 0.8901	1446.6	25.24
318.15 K, x1 = 1	1472	33
323.15 K, x1 = 0.1731	1118.3	1.882
323.15 K, x1 = 0.302	1211.3	3.375
323.15 K, x1 = 0.4028	1268.4	5.102
323.15 K, x1 = 0.4991	1313.8	7.196
323.15 K, x1 = 0.6093	1357.5	10.22
323.15 K, x1 = 0.7039	1389.6	13.45
323.15 K, x1 = 0.7951	1416.6	17.14
323.15 K, x1 = 0.8901	1441.8	21.66
323.15 K, x1 = 1	1467.2	28.05
328.15 K, x1 = 0.1731	1112.9	1.75
328.15 K, x1 = 0.302	1206.2	3.098
328.15 K, x1 = 0.4028	1263.4	4.633
328.15 K, x1 = 0.4991	1308.9	6.468
328.15 K, x1 = 0.6093	1352.5	9.095
328.15 K, x1 = 0.7039	1384.7	11.86
328.15 K, x1 = 0.7951	1411.8	15
328.15 K, x1 = 0.8901	1437	18.81
328.15 K, x1 = 1	1462.4	24.16

CCCCn1cc[n+](C)c1C.O=S(=O)([N-]S(=O)(=O)C(F)(F)F)C(F)(F)F + COC(=O)OC
Conditions	mass density [kg/m3]	viscosity [mPa·s]
293.15 K, x1 = 0.0976	1176	1.828
293.15 K, x1 = 0.1935	1242.1	3.518
293.15 K, x1 = 0.299	1291.6	6.864
293.15 K, x1 = 0.4011	1325.8	12.11
293.15 K, x1 = 0.4954	1350.1	19.5
293.15 K, x1 = 0.5974	1371	31.06
293.15 K, x1 = 0.6988	1387.8	47.37
293.15 K, x1 = 0.7987	1401.5	68.9
293.15 K, x1 = 0.9	1413.2	97.5
293.15 K, x1 = 1	1423.1	133.6
298.15 K, x1 = 0.0976	1170.1	1.686
298.15 K, x1 = 0.1935	1236.6	3.172
298.15 K, x1 = 0.299	1286.4	6.035
298.15 K, x1 = 0.4011	1320.8	10.38
298.15 K, x1 = 0.4954	1345.2	16.34
298.15 K, x1 = 0.5974	1366.2	25.45
298.15 K, x1 = 0.6988	1383	38.01
298.15 K, x1 = 0.7987	1396.8	54.23
298.15 K, x1 = 0.9	1408.5	75.54
298.15 K, x1 = 1	1418.5	101.82
303.15 K, x1 = 0.0976	1164.2	1.561
303.15 K, x1 = 0.1935	1231.1	2.876
303.15 K, x1 = 0.299	1281.2	5.352
303.15 K, x1 = 0.4011	1315.7	8.997
303.15 K, x1 = 0.4954	1340.2	13.88
303.15 K, x1 = 0.5974	1361.4	21.16
303.15 K, x1 = 0.6988	1378.3	31.01
303.15 K, x1 = 0.7987	1392.1	43.5
303.15 K, x1 = 0.9	1403.9	59.63
303.15 K, x1 = 1	1413.9	79.23
308.15 K, x1 = 0.0976	1158.2	1.445
308.15 K, x1 = 0.1935	1225.6	2.623
308.15 K, x1 = 0.299	1275.9	4.784
308.15 K, x1 = 0.4011	1310.7	7.873
308.15 K, x1 = 0.4954	1335.3	11.92
308.15 K, x1 = 0.5974	1356.5	17.83
308.15 K, x1 = 0.6988	1373.5	25.68
308.15 K, x1 = 0.7987	1387.4	35.46
308.15 K, x1 = 0.9	1399.2	47.91
308.15 K, x1 = 1	1409.3	62.74
313.15 K, x1 = 0.0976	1152.2	1.343
313.15 K, x1 = 0.1935	1220.1	2.405
313.15 K, x1 = 0.299	1270.7	4.306
313.15 K, x1 = 0.4011	1305.6	6.95
313.15 K, x1 = 0.4954	1330.4	10.34
313.15 K, x1 = 0.5974	1351.7	15.2
313.15 K, x1 = 0.6988	1368.8	21.55
313.15 K, x1 = 0.7987	1382.7	29.34
313.15 K, x1 = 0.9	1394.6	39.06
313.15 K, x1 = 1	1404.8	50.56
318.15 K, x1 = 0.0976	1146.2	1.25
318.15 K, x1 = 0.1935	1214.5	2.214
318.15 K, x1 = 0.299	1265.5	3.9
318.15 K, x1 = 0.4011	1300.6	6.184
318.15 K, x1 = 0.4954	1325.5	9.06
318.15 K, x1 = 0.5974	1346.9	13.1
318.15 K, x1 = 0.6988	1364	18.3
318.15 K, x1 = 0.7987	1378.1	24.58
318.15 K, x1 = 0.9	1390	32.32
318.15 K, x1 = 1	1400.2	41.38
323.15 K, x1 = 0.0976	1140.2	1.165
323.15 K, x1 = 0.1935	1209	2.046
323.15 K, x1 = 0.299	1260.3	3.553
323.15 K, x1 = 0.4011	1295.6	5.543
323.15 K, x1 = 0.4954	1320.6	8
323.15 K, x1 = 0.5974	1342.1	11.4
323.15 K, x1 = 0.6988	1359.3	15.71
323.15 K, x1 = 0.7987	1373.4	20.85
323.15 K, x1 = 0.9	1385.4	27.09
323.15 K, x1 = 1	1395.6	34.32
328.15 K, x1 = 0.0976	1133.9	1.091
328.15 K, x1 = 0.1935	1203.6	1.904
328.15 K, x1 = 0.299	1255.1	3.258
328.15 K, x1 = 0.4011	1290.5	5.017
328.15 K, x1 = 0.4954	1315.6	7.129
328.15 K, x1 = 0.5974	1337.2	10.03
328.15 K, x1 = 0.6988	1354.6	13.64
328.15 K, x1 = 0.7987	1368.7	17.91
328.15 K, x1 = 0.9	1380.8	23.04
328.15 K, x1 = 1	1391	28.91
